Test results as given in ChEMBL document CHEMBL4480451, “Novel nonapeptide GLP (28-36) amide derivatives with improved hypoglycemic and body weight lowering effects” (2019).
Active and inactive are the calls of the source. No cut-off for these calls is given here.

Key:
Mus musculus [1] = test: Hypoglycemic activity in ICR mouse assessed as reduction in plasma glucose AUC (0 to 120 mins) at 1 umol/kg, ip pretreated 30 mins prior to glucose challenge […] by intraperitoneal glucose tolerance test; assay type: functional, organism-based
Mus musculus [2] = test: Hypoglycemic activity in ICR mouse assessed as plasma glucose level at 1 umol/kg, ip pretreated 30 mins prior to glucose challenge and measured at 15 mins post challenge by intraperitoneal glucose tolerance test (reference value: 15.3 +/- 1.2 mmol/L); assay type: functional
Mus musculus [3] = test: Antiobesity activity in C57BL/6J mouse model of diet-induced obesity assessed as reduction in AST levels at 1 umol/kg, ip qd for 4 weeks; assay type: functional, organism-based
INS1 [4] = test: Cytoprotective activity against STZ-mediated cell death in rat INS-1 cells assessed as reduction in apoptotic cells at 0.1 to 10 uM after 24 hrs by Annexin V/propidium iodide staining-based flow cytometric analysis; assay type: functional
Mus musculus [5] = test: Antidiabetic activity in STZ-induced diabetic ICR mouse model assessed as fasting blood glucose level at 10 umol/kg, ip for 5 consecutive days by glucometery (reference value: 17.7 +/- 1.1 mM); assay type: functional
Mus musculus [6] = test: Antiobesity activity in C57BL/6J mouse model of diet-induced obesity assessed as reduction in circulating leptin level at 1 umol/kg, ip qd for 4 weeks; assay type: functional, organism-based
Mus musculus [7] = test: Antidiabetic activity in STZ-induced diabetic ICR mouse model assessed as fasting blood glucose level at 1 umol/kg, ip for 5 consecutive days by glucometery (reference value: 17.7 +/- 1.1 mM); assay type: functional
Mus musculus [8] = test: Antiobesity activity in C57BL/6J mouse model of diet-induced obesity assessed as reduction in triglyceride levels at 1 umol/kg, ip qd for 4 weeks; assay type: functional, organism-based
INS1 [9] = test: Cytoprotective activity against STZ-mediated cell death in rat INS-1 cells assessed as reduction in cell viability at 10 uM after 24 hrs by MTT assay (reference value: 50%); assay type: functional
Mus musculus [10] = test: Antidiabetic activity in STZ-induced diabetic ICR mouse model assessed as reduction in HbA1c level at 0.1 to 10 umol/kg, ip for 5 consecutive days; assay type: functional, organism-based
INS1 [11] = test: Cytoprotective activity against glucolipotoxicity-mediated cell death in rat INS-1 cells assessed as reduction in cell viability at 10 uM after 24 hrs by MTT assay (reference value: 31%); assay type: functional
INS1 [12] = test: Cytoprotective activity against STZ-mediated cell death in rat INS-1 cells assessed as reduction in cell viability at 1 uM after 24 hrs by MTT assay (reference value: 50%); assay type: functional
INS1 [13] = test: Cytoprotective activity against H2O2-induced oxidative stress-mediated cell death in rat INS-1 cells assessed as reduction in cell viability at 10 uM after 24 hrs by MTT assay (reference value: 37%); assay type: functional
Mus musculus [14] = test: Antiobesity activity in C57BL/6J mouse model of diet-induced obesity assessed as reduction in body weight at 1 umol/kg, ip qd for 4 weeks; assay type: functional, organism-based
Mus musculus [15] = test: Antiobesity activity in C57BL/6J mouse model of diet-induced obesity assessed as reduction in ALT levels at 1 umol/kg, ip qd for 4 weeks; assay type: functional, organism-based
Mus musculus [16] = test: Antiobesity activity in C57BL/6J mouse model of diet-induced obesity assessed as reduction in serum total cholesterol levels at 1 umol/kg, ip qd for 4 weeks; assay type: functional, organism-based
Mus musculus [17] = test: Antiobesity activity in C57BL/6J mouse model of diet-induced obesity assessed as reduction in circulating adiponectin level at 1 umol/kg, ip qd for 4 weeks; assay type: functional, organism-based
Mus musculus [18] = test: Antidiabetic activity in STZ-induced diabetic ICR mouse model assessed as fasting blood glucose level at 0.1 umol/kg, ip for 5 consecutive days by glucometery (reference value: 17.7 +/- 1.1 mM); assay type: functional
Mus musculus [19] = test: Antiobesity activity in C57BL/6J mouse model of diet-induced obesity assessed as increase in small brown adipocytes at 1 umol/kg, ip qd for 4 weeks by haematoxylin and eosin staining-based assay; assay type: functional, organism-based
INS1 [20] = test: Cytoprotective activity against H2O2-induced oxidative stress-mediated cell death in rat INS-1 cells assessed as reduction in apoptotic cells at 0.1 to 10 uM after 24 hrs by Annexin V/propidium iodide staining-based flow cytometric analysis; assay type: functional
INS1 [21] = test: Cytoprotective activity against glucolipotoxicity-mediated cell death in rat INS-1 cells assessed as reduction in apoptotic cells at 0.1 to 10 uM after 24 hrs by Annexin V/propidium iodide staining-based flow cytometric analysis; assay type: functional
Mus musculus [22] = test: Antiobesity activity in C57BL/6J mouse model of diet-induced obesity assessed as reduction in LDL/HDL levels at 1 umol/kg, ip qd for 4 weeks; assay type: functional, organism-based
Mus musculus [23] = test: Antiobesity activity in C57BL/6J mouse model of diet-induced obesity assessed as reduction in cumulative food intake at 1 umol/kg, ip qd for 4 weeks relative to control; assay type: functional; set-up: scale not given: the % may be the effect or the level left

H-FIAWLVKGRKKKKKK-NH2
Activity (Mus musculus [1]): Active
Activity (Mus musculus [2]): 11.9 mmol/L

H-FIAWLVKGRKKK-NH2
Activity (Mus musculus [3]): Active
Activity (INS1 [4]): Active
Activity (Mus musculus [5]): 15.03 mM
Activity (Mus musculus [6]): inactive
Activity (Mus musculus [7]): 14.9 mM
Activity (Mus musculus [8]): Active
Activity (INS1 [9]): 29%
Activity (Mus musculus [10]): inactive
Activity (INS1 [11]): 21%
Activity (INS1 [12]): 36%
Activity (INS1 [13]): 17%
Activity (Mus musculus [14]): Active
Activity (Mus musculus [15]): Active
Activity (Mus musculus [1]): Active
Activity (Mus musculus [16]): Active
Activity (Mus musculus [17]): inactive
Activity (Mus musculus [18]): 16.5 mM
Activity (Mus musculus [19]): Active
Activity (Mus musculus [2]): 10.8 mmol/L
Activity (INS1 [20]): Active
Activity (INS1 [21]): Active
Activity (Mus musculus [22]): inactive
Activity (Mus musculus [23]): 12.7%
